Earlier results in US12594250B2, “Prevention of accumulated tolerance to stimulant medication for the treatment of ADHD” (priority 2021, dated 2026).
Where two headings read alike, the source gives them in different places.

Columns and labels:
[1] = oral administration; for time to maximum serum concentration (C-max): immediate-release bolus
children with ADHD [2] = conditions: for duration of effect / action / efficacy: after one administration
DA Transporter (DAT) = biological target: T1, DA Transporter (DAT) (Homo sapiens, UniProt Q01959); conditions: adults with ADHD, a year of consistent medication use
T1 construct: dopamine transporter density was increased in specific dopamine regions of the brain; host or cells: living brain (caudate nucleus, nucleus accumbens) of adults with ADHD; endogenous protein

children with ADHD [3] = system: children with ADHD
ADHD = conditions: high dose of IR formulation

T1 sequence (Q01959 whole entry): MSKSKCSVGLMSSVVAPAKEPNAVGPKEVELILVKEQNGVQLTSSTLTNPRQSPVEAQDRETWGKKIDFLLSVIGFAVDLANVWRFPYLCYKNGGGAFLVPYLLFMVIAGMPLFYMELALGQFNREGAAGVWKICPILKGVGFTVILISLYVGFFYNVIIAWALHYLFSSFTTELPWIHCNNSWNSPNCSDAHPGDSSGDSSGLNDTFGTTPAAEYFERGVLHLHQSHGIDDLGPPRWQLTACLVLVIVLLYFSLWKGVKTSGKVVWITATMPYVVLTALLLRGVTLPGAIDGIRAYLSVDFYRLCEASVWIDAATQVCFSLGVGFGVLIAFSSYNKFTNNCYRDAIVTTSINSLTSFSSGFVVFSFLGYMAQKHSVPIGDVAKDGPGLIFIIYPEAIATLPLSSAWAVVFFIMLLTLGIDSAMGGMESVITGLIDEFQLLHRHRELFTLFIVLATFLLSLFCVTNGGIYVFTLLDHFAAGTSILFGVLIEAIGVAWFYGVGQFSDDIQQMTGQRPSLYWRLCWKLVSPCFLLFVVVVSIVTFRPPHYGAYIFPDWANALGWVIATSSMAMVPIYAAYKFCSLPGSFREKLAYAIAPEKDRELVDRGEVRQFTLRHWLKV

CC(N)Cc1ccccc1 (centres unmarked) [amphetamine]
time to maximum serum concentration (C-max) [1]: about 2 hours | duration of constant effect (children with ADHD [2]; twice-a-day (BID) dosing of immediate-release): 10 to 12 h

COC(=O)C(c1ccccc1)C1CCCCN1 (centres unmarked) [methylphenidate]
time to maximum serum concentration (C-max) [1]: about 1 hours | half-life (T-½) ([1]; serum concentration): 2 to 3 h | duration of effect / action / efficacy (children with ADHD [2]; listed as Ritalin): 3 h | onset of clinical effect (reduction in symptoms) (children with ADHD [2]; after oral administration): within an hour | DAT density (DA Transporter (DAT)): increases DAT density | effect (PD response) across the day (children with ADHD [3]; ascending PK profile): increasing effect | effect (PD response) across the day (children with ADHD [3]; flat PK profile): decreasing effect

NC(=O)C[S+]([O-])C(c1ccccc1)c1ccccc1 (centres unmarked) [modafinil]
serious side effects (ADHD): a few cases were suspected of serious dermatologic side effects

NC1=NC(=O)C(c2ccccc2)O1 (centres unmarked) [Cylert, pemoline]
duration of effect / action / efficacy (children with ADHD [2]): 6 h
